Source: patent US20080261824A1, “Rationale, methods, and assays for identifying novel taste cell genes and salty taste receptor targets and assays using these identified genes or gene products” (Senomyx, Inc., priority 2006, published 2008)

Columns and labels:
[1] = tested on: perceived human salt intensity; experiment: inventors' test of perceived human salt intensity; format: in vivo
Description: Unlike other mammals, amiloride has been reported to only slightly reduce the intensity of sodium chloride taste, i.e., by about 15-20% when used at concentrations that specifically modulate ENaC function (Halpern, B. P. (1998) Neuroscience and Behavioral Reviews. 23: 5-47). […] Thus, additional non-ENaC genes are likely involved in human salt taste.

sodium chloride taste = conditions: concentrations that specifically modulate ENaC function; cited from earlier work

| SMILES | effect on perceived human salt intensity ([1]; tested at 300-fold above IC50 for alpha beta gamma ENaC (10-fold over IC50 for delta beta gamma ENaC)) | reduction of the intensity of sodium chloride taste (sodium chloride taste) | effect on perceived human salt intensity ([1]; tested at 3000-fold above IC50 for alpha beta gamma ENaC (100-fold over IC50 for delta beta gamma ENaC), levels printed for benzamil) |
| --- | --- | --- | --- |
| N=C(N)NC(=O)c1nc(Cl)c(N)nc1N [amiloride] | did not elicit a significant effect | 15-20% | – |
| NC(=Nc1ccccc1)NC(=O)c1nc(Cl)c(N)nc1N [phenamil] | – | – | did not elicit a significant effect |
